Assay results published in ChEMBL document CHEMBL4295262, “Evaluation of the utility of stem-cell derived cardiomyocytes for drug proarrhythmic potential” (2019).

Key:
Settings in all cases: human, ipsc-cm
[1] = (§1) Electrical activity assay on cell lines treated with a given drug. DMSO was used as a vehicle and a control, unblinded dofetilide was used as a control.; format: cell-based; set-up: APDc: unit not given here
[2] = as §1; format: ADME, cell-based; set-up: FPDc: unit not given here
[3] = as §1
[4] = as §1; remark: listed apart in the source
[5] = as §1; remark: listed apart in the source
[6] = as §1; format: ADME, cell-based; set-up: FPDc: unit not given here; remark: listed apart in the source
[7] = as §1; remark: listed apart in the source
[8] = 0.1 µM, concentration (um) 0.1 uM
[9] = 10 µM, concentration (um) 10 uM
[10] = 100 µM, concentration (um) 100 uM

## CC[C@H]1OC(=O)[C@H](C)[C@@H](O[C@H]2C[C@@](C)(OC)[C@@H](O)[C@H](C)O2)[C@H](C)[C@@H](O[C@@H]2O[C@H](C)C[C@H](N(C)C)[C@H]2O)[C@](C)(OC)C[C@@H](C)C(=O)[C@H](C)[C@@H](O)[C@]1(C)O [CLARITHROMYCIN]
[1]; [8]
  APDc: 48.18
  FPD measurement: 48.18 FPDc
[1]; 1 µM, concentration (um) 1 uM
  APDc: 53.12
  FPD measurement: 53.12 FPDc
[1]; [9]
  APDc: 61.24
  FPD measurement: 61.24 FPDc
[1]; [10]
  APDc: 79.49
  FPD measurement: 79.49 FPDc
[2]; [8]
  FPDc: 0.03502
[2]; 1 µM, concentration (um) 1 uM
  FPDc: 0.03611
[2]; [9]
  FPDc: 0.04288
[2]; [10]
  FPDc: 0.03271

## CCOC(=O)N1CCC(=C2c3ccc(Cl)cc3CCc3cccnc32)CC1 [LORATADINE]
[3]; 0.0009507 µM
  FPD measurement: 54.17 FPDc
  FPDc: 54.17
[3]; 0.003004 µM
  FPD measurement: 54.08 FPDc
  FPDc: 54.08
[3]; 0.009494 µM
  FPD measurement: 55.38 FPDc
  FPDc: 55.38
[3]; 0.03 µM
  FPD measurement: 55.57 FPDc
  FPDc: 55.57
[4]; 0.0009507 µM
  FPD measurement: 1 Values Out Of 1 Were Excluded Due To Quiescence Or 0 Fpdc
  FPDc: 1 Values Out Of 1 Were Excluded Due To Quiescence Or 0 Fpdc
[4]; 0.003004 µM
  FPD measurement: 1 Values Out Of 1 Were Excluded Due To Quiescence Or 0 Fpdc
  FPDc: 1 Values Out Of 1 Were Excluded Due To Quiescence Or 0 Fpdc
[4]; 0.009494 µM
  FPD measurement: 1 Values Out Of 1 Were Excluded Due To Quiescence Or 0 Fpdc
  FPDc: 1 Values Out Of 1 Were Excluded Due To Quiescence Or 0 Fpdc
[4]; 0.03 µM
  FPD measurement: 1 Values Out Of 1 Were Excluded Due To Quiescence Or 0 Fpdc
  FPDc: 1 Values Out Of 1 Were Excluded Due To Quiescence Or 0 Fpdc
[2]; 0.0009507 µM, concentration (um) 0.000950736 uM
  FPDc: 0.02441
[2]; 0.003004 µM, concentration (um) 0.00300433 uM
  FPDc: 0.02167
[2]; 0.009494 µM, concentration (um) 0.00949367 uM
  FPDc: 0.02089
[2]; 0.03 µM, concentration (um) 0.03 uM
  FPDc: 0.02123

## Cc1cccc(C)c1OCC(C)N (stereo unspecified) [MEXILETINE]
[5]; 0.1 µM
  FPDc: 67.46
[5]; 1 µM
  FPDc: 77.46
[5]; 10 µM
  FPDc: 87.68
[5]; 100 µM
  FPDc: 95.17
[6]; [8]
  FPDc: 43.08
[6]; 1 µM, concentration (um) 1 uM
  FPDc: 54.07
[6]; [9]
  FPDc: 64.26
[6]; [10]
  FPDc: 63.72
[4]; 0.1 µM
  FPD measurement: 1 Values Out Of 1 Were Excluded Due To Quiescence Or 0 Fpdc
  FPDc: 1 Values Out Of 1 Were Excluded Due To Quiescence Or 0 Fpdc
[4]; 1 µM
  FPD measurement: 1 Values Out Of 1 Were Excluded Due To Quiescence Or 0 Fpdc
  FPDc: 1 Values Out Of 1 Were Excluded Due To Quiescence Or 0 Fpdc
[4]; 10 µM
  FPD measurement: 1 Values Out Of 1 Were Excluded Due To Quiescence Or 0 Fpdc
  FPDc: 1 Values Out Of 1 Were Excluded Due To Quiescence Or 0 Fpdc
[4]; 100 µM
  FPD measurement: 1 Values Out Of 1 Were Excluded Due To Quiescence Or 0 Fpdc
  FPDc: 1 Values Out Of 1 Were Excluded Due To Quiescence Or 0 Fpdc
[7]; 0.1 µM
  APDc: 53
  FPD measurement: 53 FPDc
[7]; 1 µM
  APDc: 57.83
  FPD measurement: 57.83 FPDc
[7]; 10 µM
  APDc: 63.09
  FPD measurement: 63.09 FPDc
[7]; 100 µM
  APDc: 74.46
  FPD measurement: 74.46 FPDc
